# Source: PMC3731988 (Molecular microbiology, 2013)
# Target: T1, threonine dehydrogenase (Tdh) (Escherichia coli, UniProt P07913)
# T1 sequence (P07913 1-341): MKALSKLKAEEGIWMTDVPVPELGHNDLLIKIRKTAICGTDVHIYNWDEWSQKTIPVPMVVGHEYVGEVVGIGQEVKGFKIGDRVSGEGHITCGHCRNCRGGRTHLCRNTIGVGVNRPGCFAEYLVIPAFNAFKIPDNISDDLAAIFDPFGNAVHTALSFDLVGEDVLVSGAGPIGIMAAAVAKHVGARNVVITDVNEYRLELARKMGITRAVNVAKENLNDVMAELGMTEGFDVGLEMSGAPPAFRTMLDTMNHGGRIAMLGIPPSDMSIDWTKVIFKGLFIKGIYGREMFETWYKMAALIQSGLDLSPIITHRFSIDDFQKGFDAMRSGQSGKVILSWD
# Experiment: NADH formation at […] nm
# Format: biochemical
# Settings: Fe(II)-loaded enzyme; 30 mM threonine, 1 mM NAD+, 50 mM Tris-HCl pH 8.4, 25 °C, anaerobic
smiles,measurement,value
C[C@@H](O)[C@H](N)C(=O)O [threonine],NADH formation at 340 nm,"Tdh oxidizes threonine, with the production of NADH that can be monitored"
